Test results: US20260184663A1, “INDENE COMPOUNDS, PHARMACEUTICAL COMPOSITIONS THEREOF, AND THEIR THERAPEUTIC APPLICATIONS” (NucMito Pharmaceuticals co. Ltd., priority 2022, published 2026)

Assays:
Assay type in all cases: cell-based
[1] = system: alpha-smooth muscle actin (α-SMA); experiment: Inhibition of TGF-β induced expression of alpha-smooth muscle actin (α-SMA) in CFSC cells (western blot); conditions: compound at 10 μM, TGF-β (10 ng/mL), 24 hours, band intensity vs TGF-β only
Experimental: The ability of a compound to inhabit the TGF-β induced expression of alpha-smooth muscle actin (α-SMA) was evaluated in CCl4-treated fat storing (CFSC) cells. α-SMA is considered as a reliable marker of hepatic stellate cell activation and a key biomarker for liver fibrosis.
CFSC cells maintained in a DMEM medium supplemented with 10% fetal bovine serum were seeded to 12-well culture dishes and grown to a confluence of 60-70% the next day. Culture was changed to a serum-free DMEM medium, and the cells were treated with a compound at 10 μM in the presence of TGF-β (10 ng/mL). The cells were incubated for another 24 hours. All culture was maintained at 37° C. in 5% carbon dioxide.
An NP-40 lysate solution (50 mM Tris (pH 7.4), 150 mM NaCl, 1% NP-40) with EDTA free cocktail added was used to lyse the cells on ice for 30 min. The lysate was collected and centrifuged at 4° C. for 10 min at 12,000 rpm. The pellet was discarded and the supernatant was transferred to a new tube. Cell lysates were loaded with 5× loading buffer and boiled for 10 min, resolved by 10% SDS-polyacrylamide gel electrophoresis (SDS-PAGE), and transferred to PVDF membrane. The membrane was blocked with 5% skim milk in Tris-buffered saline and TWEEN® 20 (TBST; 10 mM Tris-HCl (pH 8.0), 150 mM NaCl, 0.1% TWEEN® 20) for 1 h at room temperature and then incubated with α-SMA and β-actin antibodies overnight at 4° C. After washing twice with TBST, the membrane was probed with a horseradish […] anti-immunoglobulin (1:5000 dilution) for 1 h at room temperature. After two subsequent rinses in TBST, immunoreactive products were reacted with ECL and visualized by a UVP CHEMSTUDIO™ imaging system. The western blotting bands are quantitated using an ImageJ software. The percentage of inhibition was obtained by calculating the percentage decrease in the band intensity compared to the one treated with TGF-β only.
The results are summarized in Table 1, where A represents a value no less of 80% inhibition, B represents a value less than […] but no less than […], C represents a value less than 50% but no less than 30% inhibition, and D represents a value less than 30% inhibition with a compound at 10 μM.

[2] = system: MDA-MB-231 (breast cancer); experiment: Antiproliferative activity (CCK-8 cell viability), MDA-MB-231; conditions: Homo sapiens, 72 h, read-out: Antiproliferative activity in cancerous cells, MDA-MB-231 (inhibition of cell growth); for inhibition at 3.3 µM: Compound concentration: 3.3 μM; for inhibition at 10 µM: Compound concentration: 10 μM
In short: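 MDA-MB-231 breast cancer cells, grown in DMEM with 10% FBS, were plated in 96-well plates at 2,000-5,000 cells/well. Once attached, they were exposed to compound and incubated at 37° C. for 72 h. Viability was then measured with CCK-8 (10 μL per well, 4 h at 37° C.) by absorbance at 450 nm, relative to DMSO vehicle wells.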

HepG2 (liver cancer) = experiment: Antiproliferative activity (CCK-8 cell viability), HepG2; conditions: Homo sapiens, 72 h; for inhibition at 3.3 µM: Compound concentration: 3.3 μM; for inhibition at 3.3 µM / inhibition at 10 µM: read-out: Antiproliferative activity in cancerous cells, HepG2 (inhibition of cell growth); for inhibition at 10 µM: Compound concentration: 10 μM
In short: (§1)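 Cells grown in DMEM (HepG2, SW480), MEM (HeLa) or F-12K (A549), each with 10% FBS, then exposed to compound at 3.3, 10 or 30 μM for 72 h at 37 °C. CCK-8 absorbance at 450 nm; viability expressed as percent of DMSO-treated cells, graded as growth inhibition bands.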

SW480 (colon cancer) = experiment: Antiproliferative activity (CCK-8 cell viability), SW480; conditions: Homo sapiens, 72 h, read-out: Antiproliferative activity in cancerous cells, SW480 (inhibition of cell growth); for inhibition at 3.3 µM: Compound concentration: 3.3 μM; for inhibition at 10 µM: Compound concentration: 10 μM
In short: as §1

[3] = system: B16F10 (malignant melanoma); experiment: Antiproliferative activity (CCK-8 cell viability), B16F10; conditions: Mus musculus, 72 h, read-out: Antiproliferative activity in cancerous cells, B16F10 (inhibition of cell growth); for inhibition at 3.3 µM: B16-F10, Compound concentration: 3.3 μM; for inhibition at 10 µM: B16-F10, Compound concentration: 10 μM
In short: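 B16F10 melanoma cells grown in DMEM with 10% FBS were plated in 96-well plates at 2,000-5,000 cells/well. After attachment they were exposed to compound in medium for 72 h at 37° C. CCK-8 solution (10 μL) was then added, and after 4 h at 37° C absorbance was read at 450 nm.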

[4] = system: A431 (epidermoid carcinoma); experiment: Antiproliferative activity (CCK-8 cell viability), A431; conditions: Homo sapiens, 72 h, read-out: Antiproliferative activity in cancerous cells, A431 (inhibition of cell growth); for inhibition at 3.3 µM: A-431, Compound concentration: 3.3 μM; for inhibition at 10 µM: A-431, Compound concentration: 10 μM
In short: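 A431 epidermoid carcinoma cells grown in DMEM with 10% FBS were plated at 2,000-5,000 cells/well in 96-well plates. After attachment they were exposed to compound at 3.3 μM, 10 μM, or 30 μM for 72 h at 37° C. Viability was then assessed by CCK-8 against DMSO vehicle-treated wells.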

[5] = system: A549 (lung adenocarcinoma); experiment: Antiproliferative activity (CCK-8 cell viability), A549; conditions: Homo sapiens, 72 h, read-out: Antiproliferative activity in cancerous cells, A549 (inhibition of cell growth); for inhibition at 3.3 µM: Compound concentration: 3.3 μM; for inhibition at 10 µM: Compound concentration: 10 μM
In short: as §1

HeLa (cervical cancer) = experiment: Antiproliferative activity (CCK-8 cell viability), HeLa; conditions: Homo sapiens, 72 h, read-out: Antiproliferative activity in cancerous cells, HELA (inhibition of cell growth); for inhibition at 3.3 µM: Compound concentration: 3.3 μM; for inhibition at 10 µM: Compound concentration: 10 μM
In short: as §1

SMILES	inhibition at 10 µM [1] [%]	inhibition at 3.3 µM [2] [%]	inhibition at 10 µM [2] [%]	inhibition at 3.3 µM (HepG2 (liver cancer)) [%]	inhibition at 10 µM (HepG2 (liver cancer)) [%]	inhibition at 3.3 µM (SW480 (colon cancer)) [%]	inhibition at 10 µM (SW480 (colon cancer)) [%]	inhibition at 3.3 µM [3] [%]	inhibition at 10 µM [3] [%]	inhibition at 3.3 µM [4] [%]	inhibition at 10 µM [4] [%]	inhibition at 3.3 µM [5] [%]	inhibition at 10 µM [5] [%]	inhibition at 3.3 µM (HeLa (cervical cancer)) [%]	inhibition at 10 µM (HeLa (cervical cancer)) [%]	inhibition at 30 µM (HepG2 (liver cancer); Compound concentration: 30 μM, read-out: Antiproliferative activity in cancerous cells, HepG2) [%]
CCCC1=C(CC(=O)O)c2cc(F)ccc2/C1=C\c1cccc(COc2ccccc2)c1 [A7, (Z)-2-(5-Fluoro-1-(3-(phenoxymethyl)benzylidene)-2-propyl-1H-inden-3-yl)-acetic acid]	> 80	≥ 50	≥ 50	≥ 50	< 30	< 30	≥ 50	30 to 50	≥ 50	< 30	≥ 50	30 to 50	≥ 50	< 30	≥ 50	
O=C(O)CC1=C/C(=C/c2cccc(COc3ccccc3)c2)c2ccc(F)cc21 [A8, (Z)-2-(5-Fluoro-1-(3-(phenoxymethyl)benzylidene)-1H-inden-3-yl)acetic acid]	> 80	30 to 50	≥ 50	30 to 50	30 to 50	< 30	30 to 50	30 to 50	≥ 50	< 30	30 to 50	30 to 50	≥ 50	≥ 50	≥ 50	
COc1ccc2c(c1)/C(=C\c1ccc(OCc3ccccc3)cc1)C=C2CC(=O)O [A9, (Z)-2-(1-(4-(Benzyloxy)benzylidene)-6-methoxy-1H-inden-3-yl)acetic acid]	> 80	< 30	≥ 50	< 30	< 30	30 to 50	≥ 50	< 30	< 30	30 to 50	≥ 50	30 to 50	≥ 50	< 30	30 to 50	30 to 50
O=C(O)CC1=C(Cc2ccc(C(F)(F)F)cc2)/C(=C/c2cccc(COc3ccccc3)c2)c2ccc(F)cc21 [A10, (Z)-2-(5-Fluoro-1-(3-(phenoxymethyl)benzylidene)-2-(4-(trifluoromethyl)-benzyl)-1H-inden-3-yl)acetic acid]	> 80	≥ 50	≥ 50	≥ 50	≥ 50	≥ 50	≥ 50	≥ 50	≥ 50	≥ 50	≥ 50	30 to 50	≥ 50	≥ 50	≥ 50	
